Experimental data: patent US20140080810A1 (Exelixis, Inc., priority 2010, published 2014)

Molecular target: mTOR/GbL/Raptor (mTORC1) (Homo sapiens, UniProt P42345)
Experiment: mTOR/GbL/Raptor (mTORC1) ELISA Assay
Assay type: biochemical
Details: 4EBP1 used as substrate for mTOR/GbL/raptor kinase; read-out: PI3K biochemical IC50 values mTOR
Description: The measurement of mTORC1 enzyme activity was performed in an ELISA assay format following the phosphorylation of 4E-BP1 protein. All experiments were performed in the 384-well format. Generally, 0.5 μL DMSO containing varying concentrations of the test Compound was mixed with 15 μL enzyme solution. Kinase reactions were initiated with the addition of 15 μL of substrates-containing solution. The assay conditions were as follows; 0.2 nM mTORC1, 10 μM ATP and 50 nM NHis-tagged 4E-BPI in 20 mM Hepes, pH 7.2, 1 mM DTT, 50 mM NaCl, 10 mM MnCl2, 0.02 mg/mL BSA, 0.01% CHAPS, 50 mM β-glycerophosphate. Following an incubation of 120 minutes at ambient temperature, 20 μL of the reaction volume was transferred to a Ni-Chelate-coated 384-well plate. The binding step of the 4E-BP1 protein proceeded for 60 minutes, followed by washing 4 times each with 50 μL of Tris-buffered saline solution (TBS). Anti-phospho-4E-BP1 rabbit-IgG (20 μL, 1:5000) in 5% BSA-TBST (0.2% Tween-20 in TBS) was added and further incubated for 60 minutes. Incubation with a secondary HRP-tagged anti-IgG was similarly performed after washing off the primary antibody (4 washes of 50 μL). Following the final wash step with TBST, 20 μL of SuperSignal ELISA Femto (Pierce Biotechnology) was added and the luminescence measured using an EnVision plate reader.

| Compound | IC50 [nM] |
| --- | --- |
| COc1ccc2c(N3CCOc4ccc(-c5cnc6nc(C)[nH]c6c5)cc4C3)nc(CN(C)C)nc2c1 [Compound 696] | 381 |
| Cc1nc2ncc(-c3ccc4c(c3)CN(c3nc(CN(C)C)nc5c3CC(C)(C)CC5)CCO4)cc2[nH]1 [Compound 693] | 6 |
| CCNc1nc2ccc(-c3ccc4c(c3)CN(c3ncnc(NCC)c3C)CCO4)cc2[nH]1 [Compound 699] | 252 |
| Cc1nc2cc(-c3ccc4c(c3)CN(c3nc(CN(C)C)nc(C)c3C(C)C)CCO4)cnc2[nH]1 [Compound 694] | 16 |
| CCNc1nc2ccc(-c3ccc4c(c3)CN(c3ccnc5cc(F)ccc35)CCO4)cc2[nH]1 [Compound 698] | 120 |
